Laboratory results from patent publication US20200345733A1, “Microbicidal Pyrimidine or Triazine Containing Compounds” (Janssen Sciences Ireland UC, priority 2002, published 2020).
Converted amounts (≈) assume the structure as drawn. Read-outs that look alike come from different tables or passages of the source.

What was measured:
[1] = test system: HTLV-IIIb infected CEM T cells; assay: Antiviral activity in HTLV-IIIB infected CEM T cells (syncytium formation); type: cell-based, HIV; settings: Human immunodeficiency virus 1, T-cell, continuous treatment, 50% inhibition of syncytium formation in CEM T cells
Description: For experiments with CEM T cells, we used the lymphotropic SI/X4 HIV strain HTLV-IIIB, originally obtained from R. C. Gallo and M. Popovic (NIH, Bethesda, Md.). For experiments with monocyte-derived dendritic cells (MO-DC), the monotropic NSI/R5 HIV strain Ba-L, kindly provided by the NIH AIDS Research and Reference Reagent Program (Rockville, Md) was used. Ba-L stocks were grown and tittered on PHA/IL-2-stimulated peripheral blood mononuclear cells (PBMC) in complete medium, containing RPMI-1640 (Bio-Whittaker, Verviers, Belgium) and 10% bovine calf serum (Hyclone, Utah, US) (Peden K. Virological and Molecular Genetic Techniques for Studies of Established HIV Isolates. 1995, 21-45). The supernatant of these cultures were directly used as cell-free virus to infect MO-DC. To prepare cell-associated HIV Ba-L, non-stimulated PBMC (2×10^6 cells/ml) were incubated overnight with 10^−2 MOI (=multiplicity of infection) of HIV Ba-L in complete medium. Afterwards, cells were extensively washed, frozen in liquid nitrogen and thawed on the day of infection.
As a reference system, CEM T cells (obtained from the American Type culture Collection in Rockville, Md.) were used under previously standardized conditions (Balzarini J, et al. AIDS Res Hum Retroviruses 10 Apr. 2000, 16: 517-528). […]

[2] = test system: Hemophilus ducreyi; assay: In vitro antibacterial activity, Hemophilus ducreyi; type: cell-based
Source text: Compatibility with lactobacilli and normal vaginal flora is an important requirement for a vaginal microbicide. Activity on pathogens of sexual transmitted diseases is an additional advantage. In in vitro tests for antibacterial activity of compound B, the following susceptibilities were found: • 33 different Lactobacillus species isolated from recto-vaginal cultures of pregnant women were studied.

[3] = molecular target: HIV-1 reverse transcriptase (Human immunodeficiency virus type 1 group M subtype B, UniProt P04585); assay: Cell-free HIV-1 reverse transcriptase inhibition; type: biochemical; settings: inhibits HIV-1 reverse transcriptase activity by 50%, cell-free assay
Description: Next to antiviral activity in CEM T cells, inhibition of HIV-1 reverse transriptase activity was measured in a cell-free assay, in which the 50% inhibitory concentration (IC50) of said compound is indicated (FIG. 1). The CEM system, using a lab T cell-line and the SI/X4labstrain HTLV-IIIb, was not directly relevant to sexual transmission, where primary T cells, dendritic cells and NSI/R5 viruses are involved. Therefore, we focussed on prevention of NSI/R5 HIV infection in MO-DC/CD4(+) T cell co-cultures.

Compound: Cc1cc(C)c(Nc2ccnc(Nc3ccc(C#N)cc3)n2)c(C)c1 [compound B, 4-[[4-[(2,4,6-trimethylphenyl)amino]-2-pyrimidinyl]amino]benzonitrile]
- EC50 [1]: 1 nM
- MIC50 [2]: 1 µg/mL (≈ 3.04 µM)
- MIC50 ([2]; second value): 2 µg/mL (≈ 6.07 µM)
- IC50 [3]: 24 nM
